According to ChEMBL document CHEMBL2016457, “Discovery of potent and orally bioavailable 17β-hydroxysteroid dehydrogenase type 3 inhibitors” (Bioorg Med Chem, 2012):
pIC50: −log10 of the molar value. Active and inactive are the calls of the source. The rule behind the calls is not given here.

Legend:
[1] = molecular target: T1, 17-beta-hydroxysteroid dehydrogenase type 3 (Homo sapiens, UniProt P37058)
T1 sequence (P37058 whole entry): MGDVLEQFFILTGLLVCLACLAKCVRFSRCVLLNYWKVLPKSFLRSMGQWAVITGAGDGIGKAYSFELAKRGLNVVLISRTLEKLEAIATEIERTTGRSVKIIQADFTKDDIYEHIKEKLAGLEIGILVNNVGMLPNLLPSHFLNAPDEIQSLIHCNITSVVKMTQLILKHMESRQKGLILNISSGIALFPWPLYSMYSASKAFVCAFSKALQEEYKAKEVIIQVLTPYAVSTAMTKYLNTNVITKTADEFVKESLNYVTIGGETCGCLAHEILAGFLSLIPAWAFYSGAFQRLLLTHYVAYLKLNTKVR
Description: Inhibition of human recombinant 17-beta-HSD3 expressed in human HeLa cells using androstenedione as substrate preincubated for 30 mins prior substrate addition measured after 120 mins by spectrophotometry

[2] = molecular target: T2, Glucocorticoid receptor (Homo sapiens) (UniProt P04150); experiment: Antagonist activity at human GR receptor expressed in human HeLa cells assessed as inhibition of DHT-induced response after 40 hrs by luciferase/beta-galactosidase-based reporter gene assay; assay type: functional, cell-based
T2 sequence (whole entry): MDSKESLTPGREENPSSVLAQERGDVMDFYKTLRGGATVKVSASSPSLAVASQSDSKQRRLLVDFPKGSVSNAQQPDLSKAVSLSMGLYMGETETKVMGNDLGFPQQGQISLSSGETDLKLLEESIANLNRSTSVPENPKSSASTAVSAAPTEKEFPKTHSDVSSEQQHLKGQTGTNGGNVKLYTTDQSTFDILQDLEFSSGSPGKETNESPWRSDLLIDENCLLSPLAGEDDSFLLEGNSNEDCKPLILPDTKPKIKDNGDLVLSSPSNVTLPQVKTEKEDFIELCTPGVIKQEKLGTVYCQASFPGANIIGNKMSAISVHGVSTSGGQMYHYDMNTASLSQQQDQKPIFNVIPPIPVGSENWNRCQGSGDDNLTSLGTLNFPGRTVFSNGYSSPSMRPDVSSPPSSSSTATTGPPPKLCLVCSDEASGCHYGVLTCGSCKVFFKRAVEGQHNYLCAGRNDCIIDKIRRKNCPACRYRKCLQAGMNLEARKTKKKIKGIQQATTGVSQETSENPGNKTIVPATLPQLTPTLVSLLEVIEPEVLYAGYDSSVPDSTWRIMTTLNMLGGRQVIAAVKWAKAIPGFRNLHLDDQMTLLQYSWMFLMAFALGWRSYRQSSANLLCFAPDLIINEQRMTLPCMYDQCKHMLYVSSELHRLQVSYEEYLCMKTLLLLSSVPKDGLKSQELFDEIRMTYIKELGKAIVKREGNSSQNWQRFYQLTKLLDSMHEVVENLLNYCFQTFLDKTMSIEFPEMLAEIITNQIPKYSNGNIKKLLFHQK

[3] = molecular target: T3, Androgen receptor (Homo sapiens) (UniProt P10275); experiment: Agonist activity at human androgen receptor expressed in human HeLa cells assessed as DHT-induced response after 40 hrs by luciferase/beta-galactosidase-based reporter gene assay; assay type: functional, cell-based
T3 sequence (whole entry): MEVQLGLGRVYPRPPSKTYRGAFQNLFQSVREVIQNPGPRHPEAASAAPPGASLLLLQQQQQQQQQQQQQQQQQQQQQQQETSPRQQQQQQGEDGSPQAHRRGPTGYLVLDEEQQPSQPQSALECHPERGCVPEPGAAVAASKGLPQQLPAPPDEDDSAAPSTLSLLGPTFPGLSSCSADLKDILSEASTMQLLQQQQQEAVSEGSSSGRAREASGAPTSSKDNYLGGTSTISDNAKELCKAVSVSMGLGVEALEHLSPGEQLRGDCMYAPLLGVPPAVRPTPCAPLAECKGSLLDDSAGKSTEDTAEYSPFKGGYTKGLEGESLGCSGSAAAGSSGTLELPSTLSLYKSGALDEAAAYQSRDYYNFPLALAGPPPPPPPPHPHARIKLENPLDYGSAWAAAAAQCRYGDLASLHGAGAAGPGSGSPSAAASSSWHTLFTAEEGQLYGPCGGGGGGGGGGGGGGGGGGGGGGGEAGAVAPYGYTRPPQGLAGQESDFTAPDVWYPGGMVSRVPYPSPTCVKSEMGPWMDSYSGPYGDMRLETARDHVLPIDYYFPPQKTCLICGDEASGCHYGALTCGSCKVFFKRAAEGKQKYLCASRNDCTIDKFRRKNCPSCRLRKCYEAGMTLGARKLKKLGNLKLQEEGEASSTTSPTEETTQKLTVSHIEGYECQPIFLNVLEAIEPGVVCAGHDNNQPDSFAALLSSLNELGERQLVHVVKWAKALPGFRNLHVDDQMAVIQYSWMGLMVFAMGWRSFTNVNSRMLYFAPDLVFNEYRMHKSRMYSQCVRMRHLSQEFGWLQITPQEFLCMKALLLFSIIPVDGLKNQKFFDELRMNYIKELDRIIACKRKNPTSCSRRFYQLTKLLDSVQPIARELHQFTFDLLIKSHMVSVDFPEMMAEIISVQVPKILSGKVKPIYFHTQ

[4] = molecular target: T3, Androgen receptor (Homo sapiens); experiment: Antagonist activity at human androgen receptor expressed in human HeLa cells assessed as inhibition of DHT-induced response after 40 hrs by luciferase/beta-galactosidase-based reporter gene assay; assay type: functional, cell-based
[5] = molecular target: T4, 17-beta-hydroxysteroid dehydrogenase type 2 (Homo sapiens) (UniProt P37059); experiment: Inhibition of human recombinant 17-beta-HSD2 expressed in human HeLa cells using estradiol as substrate preincubated for 30 mins prior substrate addition measured after 120 mins by spectrophotometry; assay type: cell-based
T4 sequence (whole entry): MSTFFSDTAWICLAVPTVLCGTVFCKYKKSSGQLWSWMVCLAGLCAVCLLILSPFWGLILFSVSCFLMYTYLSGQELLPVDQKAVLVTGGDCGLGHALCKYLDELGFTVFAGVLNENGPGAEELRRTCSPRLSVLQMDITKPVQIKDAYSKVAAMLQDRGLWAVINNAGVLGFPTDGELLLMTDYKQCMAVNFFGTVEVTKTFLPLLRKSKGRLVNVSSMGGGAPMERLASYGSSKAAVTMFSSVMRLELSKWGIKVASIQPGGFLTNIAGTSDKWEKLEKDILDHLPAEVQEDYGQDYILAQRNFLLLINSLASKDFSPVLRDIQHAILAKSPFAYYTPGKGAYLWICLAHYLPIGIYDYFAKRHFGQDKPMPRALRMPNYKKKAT

[6] = molecular target: T5, Estrogen receptor (Homo sapiens) (UniProt P03372); experiment: Antagonist activity at human ERalpha receptor expressed in human HeLa cells assessed as inhibition of DHT-induced response after 40 hrs by luciferase/beta-galactosidase-based reporter gene assay; assay type: functional, cell-based
T5 sequence (whole entry): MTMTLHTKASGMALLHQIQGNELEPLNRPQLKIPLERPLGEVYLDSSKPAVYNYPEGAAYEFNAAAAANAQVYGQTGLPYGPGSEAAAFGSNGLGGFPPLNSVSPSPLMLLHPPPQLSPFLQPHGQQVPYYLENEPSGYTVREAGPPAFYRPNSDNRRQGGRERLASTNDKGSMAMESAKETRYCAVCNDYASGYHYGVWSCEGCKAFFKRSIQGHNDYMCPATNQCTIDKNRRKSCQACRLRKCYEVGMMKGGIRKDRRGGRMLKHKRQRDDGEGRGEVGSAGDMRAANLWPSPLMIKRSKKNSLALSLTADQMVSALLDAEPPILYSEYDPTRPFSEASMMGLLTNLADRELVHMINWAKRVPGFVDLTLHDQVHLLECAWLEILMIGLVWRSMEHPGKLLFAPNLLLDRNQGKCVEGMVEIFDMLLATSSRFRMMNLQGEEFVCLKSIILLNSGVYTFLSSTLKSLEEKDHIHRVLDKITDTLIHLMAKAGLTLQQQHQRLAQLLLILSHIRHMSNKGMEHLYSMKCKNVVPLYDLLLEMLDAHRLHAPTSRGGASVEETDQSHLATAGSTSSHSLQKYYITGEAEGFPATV

[7] = molecular target: T2, Glucocorticoid receptor (Homo sapiens); experiment: Agonist activity at human Glucocorticoid receptor expressed in human HeLa cells assessed as DHT-induced response after 40 hrs by luciferase/beta-galactosidase-based reporter gene assay; assay type: functional, cell-based
[8] = molecular target: T6, 17-beta-hydroxysteroid dehydrogenase type 1 (Homo sapiens) (UniProt P14061); experiment: Inhibition of human recombinant 17-beta-HSD1 expressed in human HeLa cells using estrone as substrate preincubated for 30 mins prior substrate addition measured after 120 mins by spectrophotometry; assay type: cell-based
T6 sequence (whole entry): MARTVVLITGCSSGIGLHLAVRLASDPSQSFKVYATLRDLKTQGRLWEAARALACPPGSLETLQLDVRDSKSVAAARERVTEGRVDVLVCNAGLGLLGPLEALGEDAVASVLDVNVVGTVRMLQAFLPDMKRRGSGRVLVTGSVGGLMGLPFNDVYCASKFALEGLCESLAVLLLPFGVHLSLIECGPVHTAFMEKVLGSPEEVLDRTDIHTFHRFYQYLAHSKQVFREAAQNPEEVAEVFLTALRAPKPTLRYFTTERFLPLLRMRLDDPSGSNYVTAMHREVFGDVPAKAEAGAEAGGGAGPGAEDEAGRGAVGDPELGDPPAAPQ

[9] = molecular target: T5, Estrogen receptor (Homo sapiens); experiment: Agonist activity at human Estrogen receptor ERalpha expressed in human HeLa cells assessed as DHT-induced response after 40 hrs by luciferase/beta-galactosidase-based reporter gene assay; assay type: functional, cell-based

pIC50 [1]	Activity [2]	Activity [3]	Activity [4]	inhibition [5]	Activity [6]	Activity [7]	inhibition [8]	Activity [9]	Structure (SMILES)
7.60	inactive	inactive	inactive	inactive	inactive	inactive	inactive	inactive	CN(C)c1ccc(N2C(=O)O/C(=C\c3ccc(O)c(Br)c3)C2=O)cc1
8.40	inactive	inactive	inactive	inactive	inactive	inactive	inactive	inactive	CN(C)c1ccc(N2C(=O)O/C(=C\c3ccc(O)c(Br)c3)C2=O)cn1
7.19	inactive	inactive	inactive	inactive	inactive	inactive	inactive	inactive	CN(C)C(=O)c1ccc(N2C(=O)O/C(=C\c3ccc(O)c(Br)c3)C2=O)cc1
6.05	inactive	inactive	inactive	inactive	inactive	inactive	inactive	inactive	CN1C(=O)/C(=C/c2ccc(O)c(Br)c2)SC1=S
8.52	inactive	inactive	inactive	inactive	inactive	inactive	inactive	inactive	O=C1/C(=C/c2ccc(O)c(Br)c2)SC(=S)N1C1CCCCC1

Second part, the compound before the results:

Structure (SMILES)	pIC50 [1]	Activity [2]	Activity [3]	Activity [4]	inhibition [5]	Activity [6]	Activity [7]	inhibition [8]	Activity [9]
C#CCN1C(=O)/C(=C/c2ccc(O)c(Br)c2)SC1=S	6.52	inactive	inactive	inactive	inactive	inactive	inactive	inactive	inactive
COc1ccc(N2C(=O)/C(=C/c3ccc(O)cc3)OC2=S)cc1	6.92	inactive	inactive	inactive	inactive	inactive	inactive	inactive	inactive
Cc1ccc(N2C(=O)/C(=C/c3ccc(O)c(Br)c3)OC2=S)cc1	8.70	inactive	inactive	inactive	inactive	inactive	inactive	inactive	inactive
O=C1O/C(=C\c2ccc(O)c(Br)c2)C(=O)N1c1ccccn1	7.13	inactive	inactive	inactive	inactive	inactive	inactive	inactive	inactive
COc1cccc(N2C(=O)/C(=C/c3ccc(O)c(Br)c3)OC2=S)c1	8.15	inactive	inactive	inactive	inactive	inactive	inactive	inactive	inactive
C=CCN1C(=O)/C(=C/c2ccc(O)c(Br)c2)SC1=S	6.92	inactive	inactive	inactive	inactive	inactive	inactive	inactive	inactive
O=C1/C(=C/c2ccc(O)c(Br)c2)SC(=S)N1C1CCOCC1	7.12	inactive	inactive	inactive	inactive	inactive	inactive	inactive	inactive
